US20110092445A1, “Amyloid ß peptide analogues, oligomers thereof, processes for preparing and composi-tions comprising said analogues or oligomers, and their uses” (Abbott Laboratories, priority 2008, published 2011)
Bridges are numbered along the chain shown (N, C = ends). Where no end group is shown, it is not given here.

How the values were obtained:
[1] = test system: Aβ globulomer epitope specific antibody 10F11; assay: Immunoprecipitation with 10F11-Dynabeads and SELDI-MS detection; format: binding, murine; details: FIG. 10A/10B; isotype controls IgG2a, IgG2b
Experimental: (§1) A: Activation of Dynabeads with Monoclonal Mouse Antibodies • The stock-suspension of dynabeads (Dynabeads M-280 Sheep anti-Mouse IgG, Invitrogen; Cat. no.: 112.02) was shaken carefully to prevent foaming. • 1 mL was aseptically removed and transferred to a 1.5 mL reaction vial. • The dynabeads were washed 3 times 5 min with 1 mL immunoprecipitation (IP)-wash buffer (IP-wash-buffer: PBS (20 mM NaH2PO4, 140 mM NaCl, pH 7.4), 0.1% BSA). During the washing procedure the supernatant was carefully removed while the dynabeads were immobilized at the side of the reaction vial with a magnetic separator stand (MSS). • The washed dynabeads were incubated with 40 μg Aβ antibody in 1 mL PBS, 0.1% BSA • The activation was carried out by overnight incubation under shaking at 4° C. • The activated dynabeads were washed 4 times 30 min (again using the MSS) with 1 mL IP-wash buffer (PBS (20 mM NaH2PO4, 140 mM NaCl, pH 7.4), 0.1% BSA). • The activated dynabeads were resuspended with 1 mL PBS, 0.1% BSA, 0.02% NaAzide; vortexed and centrifuged briefly. • The antibody activated dynabeads were stored at 4° C. until further use. […]

[2] = test system: Aβ globulomer epitope specific antibody 7C6; assay: Immunoprecipitation with 7C6-Dynabeads and SELDI-MS detection; format: binding, murine
Experimental: as §1

Disulfide-stabilized (17C, 34C) ARO 6-35)-amide oligomer (KCVFFAEDVGSNKGAIIGCM-NH2; disulfide 2-19; also: oligomer; UniProt P05067 687-706, looked up, variant L17C L34C) [example 4p]
recognition by 10F11 (immunoprecipitation, SELDI-MS) [1]: recognized | recognition by 7C6 (immunoprecipitation, SELDI-MS) ([2]; FIG. 10A/10B, isotype controls IgG2a, IgG2b): recognized | presence of the Aβ globulomer epitope (conclusion from immunoprecipitation) ([2]; immunoprecipitation with 7C6 and 10F11): contained the Aβ globulomer epitope
